Data as given in patent US7446199B2, “Compositions useful as inhibitors of protein kinases” (Vertex Pharmaceuticals Incorporated, priority 2003, dated 2008).

How the values were obtained:
Type in all cases: biochemical
FLT-3 = target: T1, FLT-3 (Homo sapiens, UniProt P36888); assay: Inhibition of FLT-3, radiometric filter-binding assay; details: 90 μM ATP, 0.5 mg/mL pE4Y, room temperature
T1 construct: 0.02% BSA and 3 nM FLT-3
T1 sequence (P36888 27-993): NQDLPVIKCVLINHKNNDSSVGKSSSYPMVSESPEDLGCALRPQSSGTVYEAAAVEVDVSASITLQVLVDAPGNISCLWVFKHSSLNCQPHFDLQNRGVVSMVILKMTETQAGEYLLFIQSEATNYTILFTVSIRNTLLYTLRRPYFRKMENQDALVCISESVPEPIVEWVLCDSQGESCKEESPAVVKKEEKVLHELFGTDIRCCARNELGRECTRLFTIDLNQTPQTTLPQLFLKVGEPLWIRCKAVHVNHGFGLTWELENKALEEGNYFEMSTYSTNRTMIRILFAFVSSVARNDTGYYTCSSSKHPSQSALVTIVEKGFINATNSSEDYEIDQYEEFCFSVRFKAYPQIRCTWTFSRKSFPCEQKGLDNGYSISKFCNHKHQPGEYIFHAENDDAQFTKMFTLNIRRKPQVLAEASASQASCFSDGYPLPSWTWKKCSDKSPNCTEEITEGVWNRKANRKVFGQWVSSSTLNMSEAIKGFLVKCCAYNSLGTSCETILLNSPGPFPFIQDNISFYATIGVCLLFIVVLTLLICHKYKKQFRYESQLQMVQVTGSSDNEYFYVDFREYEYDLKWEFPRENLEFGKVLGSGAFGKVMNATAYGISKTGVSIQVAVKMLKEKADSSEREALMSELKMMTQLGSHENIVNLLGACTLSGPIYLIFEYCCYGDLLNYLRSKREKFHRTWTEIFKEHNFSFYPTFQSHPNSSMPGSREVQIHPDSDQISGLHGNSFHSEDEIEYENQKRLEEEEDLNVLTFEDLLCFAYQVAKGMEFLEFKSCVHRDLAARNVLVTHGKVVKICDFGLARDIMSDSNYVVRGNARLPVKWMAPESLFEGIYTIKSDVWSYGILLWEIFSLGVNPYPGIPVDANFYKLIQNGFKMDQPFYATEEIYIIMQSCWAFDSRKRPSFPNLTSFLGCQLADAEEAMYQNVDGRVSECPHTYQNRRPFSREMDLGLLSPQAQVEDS
Method: (§1) Compounds were screened for their ability to inhibit FLT-3 activity using a radiometric filter-binding assay. This assay monitors the ^33P incorporation into a substrate poly(Glu, Tyr) 4:1 (pE4Y). Reactions were carried out in a solution containing 100 mM HEPES (pH 7.5), 10 mM MgCl2, 25 mM NaCl, 1 mM DTT, 0.01% BSA and 2.5% DMSO. Final substrate concentrations in the assay were 90 μM ATP and 0.5 mg/mL pE4Y (both from Sigma Chemicals, St Louis, Mo.). The final concentration of compounds is generally between 0.01 and 5 μM. Typically, a 12-point titration was conducted by preparing serial dilutions from 10 mM DMSO stock of test compound. Reactions were carried out at room temperature.
Two assay solutions were prepared. Solution 1 contains 100 mM HEPES (pH 7.5), 10 mM MgCl2, 25 mM NaCl, 1 mg/ml pE4Y and 180 μM ATP(containing 0.3 μCi of [γ-^33P]ATP for each reaction). Solution 2 contains 100 mM HEPES (pH 7.5), 10 mM MgCl2, 25 mM NaCl, 2 mM DTT, 0.02% BSA and 3 nM FLT-3. The assay was run on a 96 well plate by mixing 50 μL each of Solution 1 and […] of the test compounds. The reaction was initiated with Solution2. After incubation for 20 minutes at room temperature, the reaction was stopped with 50 μL of 20% TCA containing 0.4 mM of ATP. All of the reaction volume was then transferred to a filter plate and washed with 5% TCA by a Harvester9600 from TOMTEC (Hamden, Conn.). The amount of ^33P incorporation into pE4y was analyzed by a Packard TopCount Microplate Scintillation Counter (Meriden, Conn.). The data was fitted using Prism software to get an IC50 or Ki.

c-Met = c-Met (Homo sapiens, UniProt P08581); assay: Ki determination for the inhibition of c-Met, coupled enzyme system; details: 200 μM ATP, 10 μM polyGluTyr, 80 nM c-Met, 30° C.
c-Met, sequence (P08581 25-1390): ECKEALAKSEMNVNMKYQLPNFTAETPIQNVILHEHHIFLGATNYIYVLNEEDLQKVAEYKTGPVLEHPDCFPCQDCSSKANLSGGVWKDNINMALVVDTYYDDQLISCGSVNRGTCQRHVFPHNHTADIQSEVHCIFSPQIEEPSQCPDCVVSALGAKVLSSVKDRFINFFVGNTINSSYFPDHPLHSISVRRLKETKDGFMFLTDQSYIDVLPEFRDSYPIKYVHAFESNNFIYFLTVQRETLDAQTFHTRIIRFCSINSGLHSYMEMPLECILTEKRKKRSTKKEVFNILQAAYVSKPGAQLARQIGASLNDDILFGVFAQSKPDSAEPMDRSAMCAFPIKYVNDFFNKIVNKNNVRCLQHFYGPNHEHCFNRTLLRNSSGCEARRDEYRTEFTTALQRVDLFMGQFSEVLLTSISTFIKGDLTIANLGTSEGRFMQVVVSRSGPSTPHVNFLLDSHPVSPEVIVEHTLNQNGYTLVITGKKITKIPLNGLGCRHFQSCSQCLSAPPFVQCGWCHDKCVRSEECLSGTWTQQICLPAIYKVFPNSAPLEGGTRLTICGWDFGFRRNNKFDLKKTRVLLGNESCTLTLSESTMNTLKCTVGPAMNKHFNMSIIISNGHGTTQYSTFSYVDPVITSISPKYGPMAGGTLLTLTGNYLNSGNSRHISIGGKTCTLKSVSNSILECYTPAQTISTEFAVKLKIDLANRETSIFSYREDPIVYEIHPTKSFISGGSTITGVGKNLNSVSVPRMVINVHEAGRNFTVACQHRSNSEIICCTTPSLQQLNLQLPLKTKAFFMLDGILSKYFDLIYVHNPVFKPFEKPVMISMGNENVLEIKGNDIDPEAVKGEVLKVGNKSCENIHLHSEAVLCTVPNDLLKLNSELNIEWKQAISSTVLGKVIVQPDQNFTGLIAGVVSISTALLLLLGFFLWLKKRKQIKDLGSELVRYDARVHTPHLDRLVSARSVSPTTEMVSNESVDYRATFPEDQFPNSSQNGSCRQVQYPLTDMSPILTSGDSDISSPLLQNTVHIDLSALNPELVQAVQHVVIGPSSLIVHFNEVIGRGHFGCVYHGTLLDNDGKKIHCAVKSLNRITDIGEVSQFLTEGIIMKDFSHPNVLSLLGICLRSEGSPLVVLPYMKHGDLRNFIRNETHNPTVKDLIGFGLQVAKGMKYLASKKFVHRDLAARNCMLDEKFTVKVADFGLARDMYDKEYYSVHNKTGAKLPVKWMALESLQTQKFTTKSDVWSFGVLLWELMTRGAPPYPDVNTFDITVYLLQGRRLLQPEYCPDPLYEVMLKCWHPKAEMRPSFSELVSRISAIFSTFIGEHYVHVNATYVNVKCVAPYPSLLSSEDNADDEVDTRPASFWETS
Method: Compounds were screened for their ability to inhibit c-Met kinase activity using a standard coupled enzyme system (Fox et al., Protein Sci. 1998, 7, 2249). Reactions were carried out in a solution containing 100 mM HEPES (pH 7.5), 10 mM MgCl2, 25 mM NaCl, 300 μM NADH, 1 mM DTT, and 1.5% DMSO. Final substrate concentrations in the assay were 200 μM ATP (Sigma Chemicals, St Louis, Mo.) and 10 μM polyGluTyr (Sigma Chemical Company, St. Louis). Reactions were carried out at 30° C. and 80 nM c-Met. Final concentrations of the components of the coupled enzyme system were 2.5 mM phosphoenolpyruvate, 300 μM NADH, 30 μg/ml pyruvate kinase and 10 μg/ml lactate dehydrogenase.
An assay stock buffer solution was prepared containing all of the reagents listed above with the exception of ATP and a test compound of the present invention. The assay stock buffer solution (175 μl) was incubated in a 96 well plate with 5 μl of the test compound of the present invention at final concentrations spanning 0.006 μM to 12.5 μM at 30° C. for 10 minutes. Typically, a 12-point titration was conducted by preparing serial dilutions (from 10 mM compound stocks) with DMSO of the test compounds of the present invention in daughter plates. The reaction was initiated by the addition of 20 μl of ATP (final concentration 200 μM). Rates of reaction were obtained using a Molecular Devices Spectramax plate reader (Sunnyvale, Calif.) over 10 minutes at 30° C. The Ki values were determined from the rate data as a function of inhibitor concentration.

JAK3 = target: T2, JAK3 (Homo sapiens, UniProt P52333); assay: JAK3 inhibition assay (ELISA, Poly (Glu, Ala, Tyr) coated plates); details: 2 mM ATP, 60 minutes at 30° C.
T2 sequence (P52333 1-1124): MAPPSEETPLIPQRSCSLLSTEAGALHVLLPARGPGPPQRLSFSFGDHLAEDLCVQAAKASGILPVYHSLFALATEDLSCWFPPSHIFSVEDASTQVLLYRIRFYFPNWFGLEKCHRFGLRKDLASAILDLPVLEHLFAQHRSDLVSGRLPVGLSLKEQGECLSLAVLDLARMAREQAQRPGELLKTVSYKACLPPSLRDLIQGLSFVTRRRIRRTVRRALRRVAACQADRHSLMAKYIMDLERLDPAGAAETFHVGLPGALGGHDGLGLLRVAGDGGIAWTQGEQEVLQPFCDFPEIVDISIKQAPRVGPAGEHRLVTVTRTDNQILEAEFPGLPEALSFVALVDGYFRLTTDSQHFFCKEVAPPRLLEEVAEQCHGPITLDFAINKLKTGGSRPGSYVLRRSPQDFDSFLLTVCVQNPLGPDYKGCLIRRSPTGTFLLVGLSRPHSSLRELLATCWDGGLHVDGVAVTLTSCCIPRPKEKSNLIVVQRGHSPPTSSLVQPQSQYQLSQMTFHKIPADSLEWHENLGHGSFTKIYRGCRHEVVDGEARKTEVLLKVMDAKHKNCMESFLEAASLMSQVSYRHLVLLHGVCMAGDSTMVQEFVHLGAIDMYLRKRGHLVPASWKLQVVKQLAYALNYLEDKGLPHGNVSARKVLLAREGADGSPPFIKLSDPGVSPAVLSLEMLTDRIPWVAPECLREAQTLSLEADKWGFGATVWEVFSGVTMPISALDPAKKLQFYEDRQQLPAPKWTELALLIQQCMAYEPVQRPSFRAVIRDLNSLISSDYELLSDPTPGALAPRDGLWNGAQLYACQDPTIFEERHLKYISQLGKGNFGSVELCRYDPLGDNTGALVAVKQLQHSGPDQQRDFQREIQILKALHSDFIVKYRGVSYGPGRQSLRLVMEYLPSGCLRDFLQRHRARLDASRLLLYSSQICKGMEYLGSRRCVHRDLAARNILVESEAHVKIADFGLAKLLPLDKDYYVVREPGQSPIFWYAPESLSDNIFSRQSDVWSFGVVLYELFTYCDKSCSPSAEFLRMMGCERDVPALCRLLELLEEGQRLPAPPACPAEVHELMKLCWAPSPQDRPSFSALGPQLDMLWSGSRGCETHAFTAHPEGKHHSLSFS
Method: Compound inhibition of JAK3 was assayed by the method described by G. R. Brown, et al., Bioorg. Med. Chem. Lett. 2000, vol. 10, pp 575-579 in the following manner. Into Maxisorb plates, previously coated at 4° C. with Poly (Glu, Ala, Tyr) 6:3:1 then washed with phosphate buffered saline 0.05% and Tween (PBST), was added 2 mM ATP, 5 mM MgCl2, and a solution of compound in DMSO. The reaction was started with JAK enzyme and the plates incubated for 60 minutes at 30° C. The plates were then washed with PBST, […] HRP-Conjugated 4G10 antibody was added, and the plate incubated for 90 minutes at 30° C. The plate was again washed with PBST, […] TMB solution is added, and the plates were incubated for another 30 minutes at 30° C. Sulfuric acid ([…] of 1M) was added to stop the reaction and the plate is read at 450 nm to obtain the optical densities for analysis to determine IC50 values.

c-KIT = target: T3, c-KIT (Homo sapiens, UniProt P10721); assay: Inhibition of c-KIT, radiometric filter-binding assay; details: 700 μM ATP, 0.5 mg/mL pE4Y, room temperature
T3 construct: 0.02% BSA and 25 nM c-KIT
T3 sequence (P10721 26-976): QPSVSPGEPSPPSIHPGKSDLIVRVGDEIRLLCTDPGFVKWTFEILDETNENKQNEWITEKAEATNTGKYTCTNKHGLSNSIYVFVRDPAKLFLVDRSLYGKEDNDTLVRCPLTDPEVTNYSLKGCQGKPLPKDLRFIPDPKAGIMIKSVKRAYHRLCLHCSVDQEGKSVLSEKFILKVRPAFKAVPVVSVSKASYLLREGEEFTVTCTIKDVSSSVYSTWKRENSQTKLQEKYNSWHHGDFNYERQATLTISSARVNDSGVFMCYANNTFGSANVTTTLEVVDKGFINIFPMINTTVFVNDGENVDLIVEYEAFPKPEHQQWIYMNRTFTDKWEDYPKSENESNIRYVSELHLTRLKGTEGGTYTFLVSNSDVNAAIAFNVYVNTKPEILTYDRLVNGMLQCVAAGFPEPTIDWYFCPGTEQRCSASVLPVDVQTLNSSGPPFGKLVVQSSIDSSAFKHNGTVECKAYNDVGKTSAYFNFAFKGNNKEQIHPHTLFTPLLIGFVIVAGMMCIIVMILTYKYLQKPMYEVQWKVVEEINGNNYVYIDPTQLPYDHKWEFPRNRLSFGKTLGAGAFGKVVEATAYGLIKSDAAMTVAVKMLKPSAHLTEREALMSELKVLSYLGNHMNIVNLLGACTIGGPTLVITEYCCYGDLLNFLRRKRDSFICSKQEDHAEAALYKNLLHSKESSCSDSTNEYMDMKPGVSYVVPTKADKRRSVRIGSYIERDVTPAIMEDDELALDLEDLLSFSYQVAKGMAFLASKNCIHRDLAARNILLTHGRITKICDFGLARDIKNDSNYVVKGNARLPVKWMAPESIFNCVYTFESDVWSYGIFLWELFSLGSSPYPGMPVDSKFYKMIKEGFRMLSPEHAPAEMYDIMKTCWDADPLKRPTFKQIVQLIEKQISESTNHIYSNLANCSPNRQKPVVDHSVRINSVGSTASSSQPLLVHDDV
Method: as §1, with “Compounds are screened for” for “Compounds were screened for”, “to inhibit c-KIT activity using” for “to inhibit FLT-3 activity using”, “(pE4Y). Reactions are carried out” for “(pE4Y). Reactions were carried out”, “assay were 700 μM ATP” for “assay were 90 μM ATP”, “12-point titration is conducted by” for “12-point titration was conducted by”
Two assay solutions are prepared. Solution 1 contains 100 mM HEPES (pH 7.5), 10 mM MgCl2, 25 mM NaCl, 1 mg/ml pE4Y and 1.4 mM ATP(containing 0.5 μCi of [γ-^33P]ATP for each reaction). Solution 2 contains 100 mM HEPES (pH 7.5), 10 mM MgCl2, 25 mM NaCl, 2 mM DTT, 0.02% BSA and 25 nM c-KIT. The assay is run on a 96 well plate by mixing 33 μL of Solution1 and 1.65 μL of the test compounds. The reaction is initiated with 33 μL of Solution2. After incubation for 20 minutes at room temperature, the reaction was stopped with 50 μL of 10% TCA containing 0.2 mM of ATP. All of the reaction volume is then transferred to a filter plate and washed with 5% TCA by a Harvester9600 from TOMTEC (Hamden, Conn.). The amount of ^33P incorporation into pE4y is analyzed by a Packard TopCount Microplate Scintillation Counter (Meriden, Conn.). The data is fitted using Prism software to get an IC50 or Ki.

| Compound | Ki (FLT-3) | Ki (c-Met) | Ki (JAK3) | Ki (c-KIT) |
| --- | --- | --- | --- | --- |
| CN(C)Cc1cnc2[nH]cc(-c3oncc3-c3cccc(F)c3F)c2c1 [Compound 54, {3-[4-(2,3-Difluoro-phenyl)-isoxazol-5-yl]-1H-pyrrolo[2,3-b]pyridin-5-ylmethyl}-dimethyl-amine] | 1000 to 12500 nM | 1000 to 12500 nM | – | – |
| OCC1CCN(c2ccc(-c3cnc4[nH]cc(-c5nncn5-c5cccc(F)c5F)c4c3)cn2)CC1 [Compound 120, (5′-{3-[4-(2,3-Difluoro-phenyl)-4H-[1,2,4]triazol-3-yl]-1H-pyrrolo[2,3-b]pyridin-5-yl}-3,4,5,6-tetrahydro-2H-[1,2′]bi-pyridinyl-4-yl)-methanol] | – | < 200 nM | 1000 to 12500 nM | 200 to 1000 nM |
| Fc1cccc(-n2cnnc2-c2c[nH]c3ncc(-c4ccc(N5CCOCC5)nc4)cc23)c1F [Compound 121, 3-[4-(2,3-Difluoro-phenyl)-4H-[1,2,4]triazol-3-yl]-5-(6-morpholin-4-yl-pyridin-3-yl)-1H-pyrrolo[2,3-b]pyridine] | – | < 200 nM | 1000 to 12500 nM | 200 to 1000 nM |
| C[C@@H]1CN(c2ccc(-c3cnc4[nH]cc(-c5nncn5-c5cccc(F)c5F)c4c3)cn2)C[C@H](C)N1 [Compound 122, 3-[4-(2,3-Difluoro-phenyl)-4H-[1,2,4]triazol-3-yl]-5-[6-(3,5-dimethyl-piperazin-1-yl)-pyridin-3-yl]-1H-pyrrolo [2,3-b]pyridine] | – | < 200 nM | 1000 to 12500 nM | 200 to 1000 nM |
| Fc1cccc(-n2cnnc2-c2c[nH]c3ncc(-c4ccc(N5CCC(N6CCCC6)CC5)nc4)cc23)c1F [Compound 123, 5′-{3-[4-(2,3-Difluoro-phenyl)-4H-[1,2,4]triazol-3-yl]-1H-pyrrolo[2,3-b]pyridin-5-yl}-4-pyrrolidin-1-yl-3,4,5,6-tetrahydro-2H-[1,2′]bipyridinyl] | – | < 200 nM | 1000 to 12500 nM | 200 to 1000 nM |
| Fc1cccc(-n2cnnc2-c2c[nH]c3ncc(-c4ccc(NCC5CCCO5)nc4)cc23)c1F (centres unmarked) [Compound 124, (5-{3-[4-(2,3-Difluoro-phenyl)-4H-[1,2,4]triazol-3-yl]-1H-pyrrolo[2,3-b]pyridin-5-yl}-pyridin-2-yl)-(tetrahydro-furan-2-ylmethyl)-amine] | – | < 200 nM | 200 to 1000 nM | 200 to 1000 nM |
